Measurements as given in PMC4956396 (Molecular Pain, 2016).

Columns and labels:
Cav3.1 = Cav3.1 (Homo sapiens, UniProt O43497); experiment: whole-cell patch clamp, transiently transfected tsA-201 cells, % inhibition at […]; assay type: cell-based; details: tsA201, read-out: % inhibition at 10 μM
Cav3.3 = Cav3.3 (Homo sapiens, UniProt Q9P0X4); experiment: as above; assay type: cell-based; details: tsA201, read-out: % inhibition at 10 μM
Sequence of Cav3.3 (Q9P0X4 whole entry): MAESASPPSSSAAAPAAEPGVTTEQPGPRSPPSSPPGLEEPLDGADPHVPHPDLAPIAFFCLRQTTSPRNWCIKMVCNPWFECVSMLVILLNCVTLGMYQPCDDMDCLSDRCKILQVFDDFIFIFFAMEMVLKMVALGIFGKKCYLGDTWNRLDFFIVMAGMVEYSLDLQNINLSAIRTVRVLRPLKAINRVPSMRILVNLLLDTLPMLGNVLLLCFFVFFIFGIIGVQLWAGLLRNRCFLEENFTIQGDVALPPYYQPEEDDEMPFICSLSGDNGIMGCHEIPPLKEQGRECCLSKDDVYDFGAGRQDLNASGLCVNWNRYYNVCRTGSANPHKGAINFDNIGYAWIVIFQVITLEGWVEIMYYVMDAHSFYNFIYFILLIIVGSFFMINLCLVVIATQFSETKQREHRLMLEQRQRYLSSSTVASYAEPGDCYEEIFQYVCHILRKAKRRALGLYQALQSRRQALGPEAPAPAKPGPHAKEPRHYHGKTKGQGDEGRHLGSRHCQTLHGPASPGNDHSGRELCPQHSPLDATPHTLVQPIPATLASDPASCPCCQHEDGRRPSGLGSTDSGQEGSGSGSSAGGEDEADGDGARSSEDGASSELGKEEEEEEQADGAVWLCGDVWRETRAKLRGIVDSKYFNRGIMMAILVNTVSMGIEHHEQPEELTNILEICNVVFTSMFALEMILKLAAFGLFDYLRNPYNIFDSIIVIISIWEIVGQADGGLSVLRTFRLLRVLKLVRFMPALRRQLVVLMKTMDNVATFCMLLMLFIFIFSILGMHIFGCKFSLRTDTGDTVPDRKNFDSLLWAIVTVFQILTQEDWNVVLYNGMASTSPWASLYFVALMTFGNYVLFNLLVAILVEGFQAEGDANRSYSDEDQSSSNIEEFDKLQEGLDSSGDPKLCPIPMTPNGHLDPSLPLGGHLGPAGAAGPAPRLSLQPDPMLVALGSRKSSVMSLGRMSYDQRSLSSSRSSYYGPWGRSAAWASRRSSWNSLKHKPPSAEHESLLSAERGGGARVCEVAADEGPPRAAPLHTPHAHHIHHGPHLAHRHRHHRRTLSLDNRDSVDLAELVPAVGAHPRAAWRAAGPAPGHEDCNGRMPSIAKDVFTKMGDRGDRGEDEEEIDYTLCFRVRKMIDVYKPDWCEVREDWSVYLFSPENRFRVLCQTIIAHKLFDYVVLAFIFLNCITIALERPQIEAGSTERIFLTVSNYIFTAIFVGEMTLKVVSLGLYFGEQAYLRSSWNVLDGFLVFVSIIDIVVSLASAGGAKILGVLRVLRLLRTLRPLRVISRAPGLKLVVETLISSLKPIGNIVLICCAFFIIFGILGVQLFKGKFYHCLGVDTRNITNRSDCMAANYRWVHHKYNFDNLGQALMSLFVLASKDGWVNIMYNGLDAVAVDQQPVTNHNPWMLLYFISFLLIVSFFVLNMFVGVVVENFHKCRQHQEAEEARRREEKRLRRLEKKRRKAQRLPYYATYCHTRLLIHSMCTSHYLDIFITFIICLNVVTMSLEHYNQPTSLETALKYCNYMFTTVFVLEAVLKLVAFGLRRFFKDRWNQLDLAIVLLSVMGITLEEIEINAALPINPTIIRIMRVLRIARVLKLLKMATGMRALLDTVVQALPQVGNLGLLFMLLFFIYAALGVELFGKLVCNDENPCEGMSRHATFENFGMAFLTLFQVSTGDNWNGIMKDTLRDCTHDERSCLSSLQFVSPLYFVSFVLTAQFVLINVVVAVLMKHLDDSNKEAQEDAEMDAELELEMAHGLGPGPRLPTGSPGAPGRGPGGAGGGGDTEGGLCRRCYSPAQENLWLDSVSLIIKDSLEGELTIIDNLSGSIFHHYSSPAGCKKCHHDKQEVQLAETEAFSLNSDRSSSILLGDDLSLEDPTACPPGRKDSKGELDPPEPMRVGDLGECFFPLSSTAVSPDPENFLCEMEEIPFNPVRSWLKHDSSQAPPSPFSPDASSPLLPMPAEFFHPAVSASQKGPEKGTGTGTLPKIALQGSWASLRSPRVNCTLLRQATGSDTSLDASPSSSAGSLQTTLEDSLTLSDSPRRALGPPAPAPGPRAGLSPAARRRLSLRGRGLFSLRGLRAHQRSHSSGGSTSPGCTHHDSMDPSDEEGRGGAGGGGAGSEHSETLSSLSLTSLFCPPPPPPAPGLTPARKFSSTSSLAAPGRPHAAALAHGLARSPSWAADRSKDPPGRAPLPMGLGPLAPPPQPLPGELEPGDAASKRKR

Sequence of Cav3.1 (O43497 whole entry): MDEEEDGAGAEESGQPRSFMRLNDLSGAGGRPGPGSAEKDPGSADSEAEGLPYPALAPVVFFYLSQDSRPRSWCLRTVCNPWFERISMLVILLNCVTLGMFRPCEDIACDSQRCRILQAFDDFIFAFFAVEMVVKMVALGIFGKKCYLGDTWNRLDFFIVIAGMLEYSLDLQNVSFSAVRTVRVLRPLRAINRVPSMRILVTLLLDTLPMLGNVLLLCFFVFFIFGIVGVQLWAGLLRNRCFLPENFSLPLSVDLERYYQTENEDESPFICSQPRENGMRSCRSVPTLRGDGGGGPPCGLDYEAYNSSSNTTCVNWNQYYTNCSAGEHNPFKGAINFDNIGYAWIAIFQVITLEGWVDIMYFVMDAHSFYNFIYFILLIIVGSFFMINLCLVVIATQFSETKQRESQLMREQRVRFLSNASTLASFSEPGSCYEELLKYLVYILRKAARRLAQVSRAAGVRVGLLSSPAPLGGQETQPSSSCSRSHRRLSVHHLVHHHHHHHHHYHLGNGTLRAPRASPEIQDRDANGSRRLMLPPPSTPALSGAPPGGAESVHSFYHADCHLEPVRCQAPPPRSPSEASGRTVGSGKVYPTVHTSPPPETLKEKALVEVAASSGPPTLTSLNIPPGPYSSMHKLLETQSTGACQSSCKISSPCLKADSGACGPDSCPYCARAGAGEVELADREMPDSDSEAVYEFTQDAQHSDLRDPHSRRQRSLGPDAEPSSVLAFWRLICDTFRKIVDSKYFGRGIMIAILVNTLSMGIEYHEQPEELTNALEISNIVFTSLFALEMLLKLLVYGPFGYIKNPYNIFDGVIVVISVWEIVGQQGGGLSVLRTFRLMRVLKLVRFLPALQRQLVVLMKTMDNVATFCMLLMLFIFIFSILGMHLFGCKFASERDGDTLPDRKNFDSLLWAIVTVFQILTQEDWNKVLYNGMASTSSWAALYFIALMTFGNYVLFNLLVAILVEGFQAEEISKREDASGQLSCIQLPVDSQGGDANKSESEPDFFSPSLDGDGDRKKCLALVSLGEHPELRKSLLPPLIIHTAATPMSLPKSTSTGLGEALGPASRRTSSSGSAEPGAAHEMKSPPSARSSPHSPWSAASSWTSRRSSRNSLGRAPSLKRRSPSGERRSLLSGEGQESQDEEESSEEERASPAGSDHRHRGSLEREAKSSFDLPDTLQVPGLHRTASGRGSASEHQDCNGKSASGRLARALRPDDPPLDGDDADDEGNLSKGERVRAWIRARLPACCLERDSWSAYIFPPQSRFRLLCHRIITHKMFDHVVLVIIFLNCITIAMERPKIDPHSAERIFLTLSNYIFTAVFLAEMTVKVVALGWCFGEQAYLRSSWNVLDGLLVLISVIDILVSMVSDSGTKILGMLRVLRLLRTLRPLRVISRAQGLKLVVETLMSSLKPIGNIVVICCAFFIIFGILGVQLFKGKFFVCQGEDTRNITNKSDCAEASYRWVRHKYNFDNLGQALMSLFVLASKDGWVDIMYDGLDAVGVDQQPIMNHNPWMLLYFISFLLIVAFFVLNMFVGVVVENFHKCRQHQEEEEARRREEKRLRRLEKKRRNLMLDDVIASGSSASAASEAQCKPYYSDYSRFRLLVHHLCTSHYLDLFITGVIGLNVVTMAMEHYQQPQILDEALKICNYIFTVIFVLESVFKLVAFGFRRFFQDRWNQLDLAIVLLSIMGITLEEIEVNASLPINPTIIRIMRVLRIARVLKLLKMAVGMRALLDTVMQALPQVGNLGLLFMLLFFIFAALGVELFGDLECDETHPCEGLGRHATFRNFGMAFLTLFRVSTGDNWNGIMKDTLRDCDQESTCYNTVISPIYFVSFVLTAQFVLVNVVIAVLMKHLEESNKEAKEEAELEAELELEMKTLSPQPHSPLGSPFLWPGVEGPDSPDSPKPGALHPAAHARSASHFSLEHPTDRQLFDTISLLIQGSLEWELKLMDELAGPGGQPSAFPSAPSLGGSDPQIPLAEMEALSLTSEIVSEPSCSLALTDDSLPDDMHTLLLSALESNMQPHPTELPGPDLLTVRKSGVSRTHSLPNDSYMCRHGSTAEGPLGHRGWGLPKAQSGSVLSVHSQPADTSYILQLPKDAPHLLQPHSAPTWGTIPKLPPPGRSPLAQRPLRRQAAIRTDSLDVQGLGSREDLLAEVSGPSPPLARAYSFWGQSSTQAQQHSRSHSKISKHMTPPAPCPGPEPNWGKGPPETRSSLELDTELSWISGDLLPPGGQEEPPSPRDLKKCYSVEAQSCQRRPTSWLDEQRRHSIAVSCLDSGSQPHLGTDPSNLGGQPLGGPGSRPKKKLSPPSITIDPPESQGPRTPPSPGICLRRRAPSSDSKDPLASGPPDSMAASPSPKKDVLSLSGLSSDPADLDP

inhibition at 10 µM (Cav3.1): 93.3 ± 2.78%
inhibition at 10 µM (Cav3.3): 88.4 ± 4.08%
SMILES: COc1ccccc1-c1no[n+]([O-])c1CN1CCN(C(c2ccc(F)cc2)c2ccc(F)cc2)CC1 [10e, 3-((4-(bis(4-fluorophenyl)methyl)piperazin-1-yl)methyl)-4-(2-methoxyphenyl)-1,2,5-oxadiazole 2-oxide]
